Data published in BigSolDB 2.1.

Structure (SMILES): O=C(O)C[C@H](O)C(=O)O
- solubility (mole fraction) (in acetone, 278.15 K): 0.136
- solubility (mole fraction) (in acetone, 283.15 K): 0.145
- solubility (mole fraction) (in acetone, 288.15 K): 0.153
- solubility (mole fraction) (in acetone, 293.15 K): 0.163
- solubility (mole fraction) (in acetone, 298.15 K): 0.17
- solubility (mole fraction) (in acetone, 303.15 K): 0.18
- solubility (mole fraction) (in acetone, 308.15 K): 0.189
- solubility (mole fraction) (in acetone, 313.15 K): 0.201
- solubility (mole fraction) (in acetone, 318.15 K): 0.211
- solubility (mole fraction) (in acetone, 323.15 K): 0.225
- solubility (mole fraction) (in acetonitrile, 278.15 K): 0.045
- solubility (mole fraction) (in acetonitrile, 283.15 K): 0.0485
- solubility (mole fraction) (in acetonitrile, 288.15 K): 0.0523
- solubility (mole fraction) (in acetonitrile, 293.15 K): 0.0559
- solubility (mole fraction) (in acetonitrile, 298.15 K): 0.0608
- solubility (mole fraction) (in acetonitrile, 303.15 K): 0.0646
- solubility (mole fraction) (in acetonitrile, 308.15 K): 0.0684
- solubility (mole fraction) (in acetonitrile, 313.15 K): 0.0733
- solubility (mole fraction) (in acetonitrile, 318.15 K): 0.0783
- solubility (mole fraction) (in acetonitrile, 323.15 K): 0.0838
- solubility (mole fraction) (in ethanol, 278.15 K): 0.11
- solubility (mole fraction) (in ethanol, 283.15 K): 0.126
- solubility (mole fraction) (in ethanol, 288.15 K): 0.145
- solubility (mole fraction) (in ethanol, 293.15 K): 0.166
- solubility (mole fraction) (in ethanol, 298.15 K): 0.187
- solubility (mole fraction) (in ethanol, 303.15 K): 0.207
- solubility (mole fraction) (in ethanol, 308.15 K): 0.232
- solubility (mole fraction) (in ethanol, 313.15 K): 0.256
- solubility (mole fraction) (in ethanol, 318.15 K): 0.283
- solubility (mole fraction) (in ethanol, 323.15 K): 0.314
- solubility (mole fraction) (in ethyl acetate, 278.15 K): 0.0017
- solubility (mole fraction) (in ethyl acetate, 283.15 K): 0.0029
- solubility (mole fraction) (in ethyl acetate, 288.15 K): 0.005
- solubility (mole fraction) (in ethyl acetate, 293.15 K): 0.0083
- solubility (mole fraction) (in ethyl acetate, 298.15 K): 0.0134
- solubility (mole fraction) (in ethyl acetate, 303.15 K): 0.0213
- solubility (mole fraction) (in ethyl acetate, 308.15 K): 0.0333
- solubility (mole fraction) (in ethyl acetate, 313.15 K): 0.0516
- solubility (mole fraction) (in ethyl acetate, 318.15 K): 0.0763
- solubility (mole fraction) (in ethyl acetate, 323.15 K): 0.113
- solubility (mole fraction) (in isopropanol, 278.15 K): 0.117
- solubility (mole fraction) (in isopropanol, 283.15 K): 0.136
- solubility (mole fraction) (in isopropanol, 288.15 K): 0.157
- solubility (mole fraction) (in isopropanol, 293.15 K): 0.178
- solubility (mole fraction) (in isopropanol, 298.15 K): 0.203
- solubility (mole fraction) (in isopropanol, 303.15 K): 0.228
- solubility (mole fraction) (in isopropanol, 308.15 K): 0.256
- solubility (mole fraction) (in isopropanol, 313.15 K): 0.285
- solubility (mole fraction) (in isopropanol, 318.15 K): 0.314
- solubility (mole fraction) (in isopropanol, 323.15 K): 0.345
- solubility (mole fraction) (in n-butanol, 278.15 K): 0.0832
- solubility (mole fraction) (in n-butanol, 283.15 K): 0.0948
- solubility (mole fraction) (in n-butanol, 288.15 K): 0.109
- solubility (mole fraction) (in n-butanol, 293.15 K): 0.124
- solubility (mole fraction) (in n-butanol, 298.15 K): 0.14
- solubility (mole fraction) (in n-butanol, 303.15 K): 0.159
- solubility (mole fraction) (in n-butanol, 308.15 K): 0.18
- solubility (mole fraction) (in n-butanol, 313.15 K): 0.201
- solubility (mole fraction) (in n-butanol, 318.15 K): 0.225
- solubility (mole fraction) (in n-butanol, 323.15 K): 0.25
- solubility (mole fraction) (in n-propanol, 278.15 K): 0.0917
- solubility (mole fraction) (in n-propanol, 283.15 K): 0.103
- solubility (mole fraction) (in n-propanol, 288.15 K): 0.118
- solubility (mole fraction) (in n-propanol, 293.15 K): 0.134
- solubility (mole fraction) (in n-propanol, 298.15 K): 0.153
- solubility (mole fraction) (in n-propanol, 303.15 K): 0.172
- solubility (mole fraction) (in n-propanol, 308.15 K): 0.193
- solubility (mole fraction) (in n-propanol, 313.15 K): 0.215
- solubility (mole fraction) (in n-propanol, 318.15 K): 0.238
- solubility (mole fraction) (in n-propanol, 323.15 K): 0.264
